SMILES strings stand for the structures.

The subject of test [1] is RKO (RKOp27) human colon adenocarcinoma cells. The experiment in a line: Alamar Blue cell viability assay, anti-proliferative/cytotoxic activity on proliferating RKO subclones. The format is cell-based. The conditions noted are these: RKOp27, 72 h, RKO p27 uninduced (proliferating) cells, value = class bound given in Table A, read-out: −logIC50 RKO p27 uninduced (proliferating) (converted). In short, it runs like this:
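RKOp27 subclones (5000 cells/well) were exposed 24 h after seeding to semi-log compound dilutions in DMEM with 10% FCS, in quadruplicate, for 72 h at 37 °C. Viability was read by Alamar Blue fluorescence (544/590 nm) relative to untreated cells (1% DMSO medium). IC50 came from concentration-effect curves and is reported as −log IC50 [mol/l].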
Background: The colour change of resazurin is a common sign of viable cells or microbes.

In test [2] the test system is subclones of RKO colon adenocarcinoma cells (RKOp27 or RKOp21) arrested by Ponasterone A. The experiment in a line: Alamar Blue cell viability assay, cell cycle specific mode of action: cells arrested by ectopic p27Kip1 induced by Ponasterone A versus proliferating cells. The following applies: Homo sapiens, RKO p27 induced (arrested) cells, 10 μM Ponasterone A, 72 hours, value = class bound given in Table A, read-out: −logIC50 RKO p27 induced (arrested) (converted). It counts as cell-based. In short, it runs like this:
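RKOp27 or RKOp21 cells, 15000/well in DMEM/10% FCS, either arrested by p27Kip1 induced with 10 μM Ponasterone A or proliferating without inducer; compound added after 24 h, 72 h at 37° C. Alamar Blue fluorescence (544/590 nm), viability as % of untreated cells; −log IC50 reported.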

As for `COc1cccc(CCC(=O)Nc2sc3c(c2C#N)CCC(OC(=O)N2CCOCC2)C3)c1` (stereo not drawn) [Example 231, Morpholine-4-carboxylic acid 3-cyano-2-[3-(3-methoxy-phenyl)-propanoylamino]-4,5,6,7-tetrahydro-benzo[b]thiophen-6-yl ester], the IC50 in test [1] is at most 501 nM; in test [2] it was at least 100000 nM.
The matching figures for `COc1cccc(CCC(=O)Nc2sc3c(c2C#N)CCC(OC(=O)NCc2csc(C)n2)C3)c1` (stereo not drawn) [Example 232, (2-Methyl-thiazol-4-ylmethyl)-carbamic acid 3-cyano-2-[3-(3-methoxy-phenyl)-propanoylamino]-4,5,6,7-tetrahydro-benzo[b]thiophen-6-yl ester]: 501 to 2000 nM and at least 100000 nM.
The matching figures for `CNC(=O)OCC1CCc2c(sc(NC(=O)CCc3cccc(OC)c3)c2C#N)C1` (stereo not drawn) [Example 233, Methyl-carbamic acid 3-cyano-2-[3-(3-methoxy-phenyl)-propanoylamino]-4,5,6,7-tetrahydro-benzo[b]thiophen-6-ylmethyl ester]: at most 501 nM and at least 100000 nM.
The corresponding values for `COCCNC(=O)OCC1CCc2c(sc(NC(=O)CCc3cccc(OC)c3)c2C#N)C1` (stereo not drawn) [Example 234, (2-Methoxy-ethyl)-carbamic acid 3-cyano-2-[3-(3-methoxy-phenyl)-propanoylamino]-4,5,6,7-tetrahydro-benzo[b]thiophen-6-ylmethyl ester] are at most 501 nM and at least 100000 nM.
Take `COc1cccc(CCC(=O)Nc2sc3c(c2C#N)CCC(COC(=O)NCc2ccccn2)C3)c1` (stereo not drawn) [Example 235, Pyridin-2-ylmethyl-carbamic acid 3-cyano-2-[3-(3-methoxy-phenyl)-propanoylamino]-4,5,6,7-tetrahydro-benzo[b]thiophen-6-ylmethyl ester]: the IC50 in test [1] is 501 to 2000 nM; in test [2], at least 100000 nM.
The corresponding values for `COc1cccc(CCC(=O)Nc2sc3c(c2C#N)CCC(COC(=O)NCCn2ccnc2)C3)c1` (stereo not drawn) [Example 236, (2-Imidazol-1-yl-ethyl)-carbamic acid 3-cyano-2-[3-(3-methoxy-phenyl)-propanoylamino]-4,5,6,7-tetrahydro-benzo[b]thiophen-6-ylmethyl ester] are 501 to 2000 nM and at least 100000 nM.
Regarding `COc1cccc(CCC(=O)Nc2sc3c(c2C#N)CCC(COC(=O)NCc2ccnn2C)C3)c1` (stereo not drawn) [Example 237, (2-Methyl-2H-pyrazol-3-ylmethyl)-carbamic acid 3-cyano-2-[3-(3-methoxy-phenyl)-propanoylamino]-4,5,6,7-tetrahydro-benzo[b]thiophen-6-ylmethyl ester], the figures for the IC50 in test [1] and in test [2] were 501 to 2000 nM and at least 100000 nM, respectively.
The matching figures for `COc1cccc(CCC(=O)Nc2sc3c(c2C#N)CCC(COC(=O)NCc2cn(C)cn2)C3)c1` (stereo not drawn) [Example 238, (1-Methyl-1H-imidazol-4-ylmethyl)-carbamic acid 3-cyano-2-[3-(3-methoxy-phenyl)-propanoylamino]-4,5,6,7-tetrahydro-benzo[b]thiophen-6-ylmethyl ester]: 501 to 2000 nM and at least 100000 nM.
Take `COc1cccc(CCC(=O)Nc2sc3c(c2C#N)CCC(COC(=O)NCc2cnn(C)c2)C3)c1` (stereo not drawn) [Example 239, (1-Methyl-1H-pyrazol-4-ylmethyl)-carbamic acid 3-cyano-2-[3-(3-methoxy-phenyl)-propanoylamino]-4,5,6,7-tetrahydro-benzo[b]thiophen-6-ylmethyl ester]: the values for the IC50 in test [1] and in test [2] were at most 501 nM and at least 100000 nM, respectively.
The matching figures for `COc1cccc(CCC(=O)Nc2sc3c(c2C#N)CCC(COC(=O)NCc2cc(C)on2)C3)c1` (stereo not drawn) [Example 240, (5-Methyl-isoxazol-3-ylmethyl)-carbamic acid 3-cyano-2-[3-(3-methoxy-phenyl)-propanoylamino]-4,5,6,7-tetrahydro-benzo[b]thiophen-6-ylmethyl ester]: at most 501 nM and at least 100000 nM.
The corresponding values for `COc1cccc(CCC(=O)Nc2sc3c(c2C#N)CCC(COC(=O)NCC2CCCO2)C3)c1` (stereo not drawn) [Example 241, (Tetrahydro-furan-2-ylmethyl)-carbamic acid 3-cyano-2-[3-(3-methoxy-phenyl)-propanoylamino]-4,5,6,7-tetrahydro-benzo[b]thiophen-6-ylmethyl ester] are 501 to 2000 nM and at least 100000 nM.
Turning to `COc1cccc(CCC(=O)Nc2sc3c(c2C#N)CCC(COC(=O)NCc2cnoc2C)C3)c1` (stereo not drawn) [Example 242, (5-Methyl-isoxazol-4-ylmethyl)-carbamic acid 3-cyano-2-[3-(3-methoxy-phenyl)-propanoylamino]-4,5,6,7-tetrahydro-benzo[b]thiophen-6-ylmethyl ester], the figures for the IC50 in test [1] and in test [2] were at most 501 nM and at least 100000 nM, respectively.
Consider `COc1cccc(CCC(=O)Nc2sc3c(c2C#N)CCC(COC(=O)NCc2ccno2)C3)c1` (stereo not drawn) [Example 243, Isoxazol-5-ylmethyl-carbamic acid 3-cyano-2-[3-(3-methoxy-phenyl)-propanoylamino]-4,5,6,7-tetrahydro-benzo[b]thiophen-6-ylmethyl ester], for which the IC50 was 501 to 2000 nM in test [1] and at least 100000 nM in test [2].
The matching figures for `COc1cccc(CCC(=O)Nc2sc3c(c2C#N)CCC(COC(=O)NCc2cc(C)no2)C3)c1` (stereo not drawn) [Example 244, (3-Methyl-isoxazol-5-ylmethyl)-carbamic acid 3-cyano-2-[3-(3-methoxy-phenyl)-propanoylamino]-4,5,6,7-tetrahydro-benzo[b]thiophen-6-ylmethyl ester]: at most 501 nM and at least 100000 nM.
The corresponding values for `COc1cccc(CCC(=O)Nc2sc3c(c2C#N)CCC(COC(=O)N2CCOCC2)C3)c1` (stereo not drawn) [Example 245, Morpholine-4-carboxylic acid 3-cyano-2-[3-(3-methoxy-phenyl)-propanoylamino]-4,5,6,7-tetrahydro-benzo[b]thiophen-6-ylmethyl ester] are at most 501 nM and at least 100000 nM.
The corresponding values for `COc1cccc(CCC(=O)Nc2sc3c(c2C#N)CCC(COC(=O)N2CCCC2)C3)c1` (stereo not drawn) [Example 246, Pyrrolidine-1-carboxylic acid 3-cyano-2-[3-(3-methoxy-phenyl)-propanoylamino]-4,5,6,7-tetrahydro-benzo[b]thiophen-6-ylmethyl ester] are at most 501 nM and at least 100000 nM.
As to `COc1cccc(CCC(=O)Nc2sc3c(c2C#N)CCC(COC(=O)NCc2csc(C)n2)C3)c1` (stereo not drawn) [Example 247, (2-Methyl-thiazol-4-ylmethyl)-carbamic acid 3-cyano-2-[3-(3-methoxy-phenyl)-propanoylamino]-4,5,6,7-tetrahydro-benzo[b]thiophen-6-ylmethyl ester], the IC50 is at most 501 nM in test [1] and at least 100000 nM in test [2].
The corresponding values for `CCNC(=O)OC1CCc2c(sc(NC(=O)CCc3cccc(OC)c3)c2C#N)C1` (stereo not drawn) [Example 248, Ethyl-carbamic acid 3-cyano-2-[3-(3-methoxy-phenyl)-propanoylamino]-4,5,6,7-tetrahydro-benzo[b]thiophen-6-yl ester] are at most 501 nM and at least 100000 nM.
In the case of `COc1cccc(CCC(=O)Nc2sc3c(c2C#N)CCC(OC(=O)NC2CC2)C3)c1` (stereo not drawn) [Example 249, Cyclopropyl-carbamic acid 3-cyano-2-[3-(3-methoxy-phenyl)-propanoylamino]-4,5,6,7-tetrahydro-benzo[b]thiophen-6-yl ester], the IC50 is at most 501 nM in test [1] and at least 100000 nM in test [2].
For `COc1cccc(CCC(=O)Nc2sc3c(c2C#N)CCC(OC(=O)NCCO)C3)c1` (stereo not drawn) [Example 250, (2-Hydroxy-ethyl)-carbamic acid 3-cyano-2-[3-(3-methoxy-phenyl)-propanoylamino]-4,5,6,7-tetrahydro-benzo[b]thiophen-6-yl ester], the IC50 in test [1] was at most 501 nM; in test [2] it was at least 100000 nM.
The corresponding values for `COc1cccc(CCC(=O)Nc2sc3c(c2C#N)CCC(OC(=O)NC2CCOCC2)C3)c1` (stereo not drawn) [Example 251, (Tetrahydro-pyran-4-yl)-carbamicacid 3-cyano-2-[3-(3-methoxy-phenyl)-propanoylamino]-4,5,6,7-tetrahydro-benzo[b]thiophen-6-yl ester] are 501 to 2000 nM and at least 100000 nM.
The corresponding values for `CCNC(=O)OCC1CCc2c(sc(NC(=O)CCc3cccc(OC)c3)c2C#N)C1` (stereo not drawn) [Example 252, Ethyl-carbamic acid 3-cyano-2-[3-(3-methoxy-phenyl)-propanoylamino]-4,5,6,7-tetrahydro-benzo[b]thiophen-6-ylmethyl ester] are at most 501 nM and at least 100000 nM.
The corresponding values for `COc1cccc(CCC(=O)Nc2sc3c(c2C#N)CCC(COC(=O)NC2CC2)C3)c1` (stereo not drawn) [Example 253, Cyclopropyl-carbamic acid 3-cyano-2-[3-(3-methoxy-phenyl)-propanoylamino]-4,5,6,7-tetrahydro-benzo[b]thiophen-6-ylmethyl ester] are at most 501 nM and at least 100000 nM.
`CCOc1ccccc1CCC(=O)Nc1sc2c(c1C#N)CCC(OC(=O)NCc1csc(C)n1)C2` (stereo not drawn) [Example 254, (2-Methyl-thiazol-4-ylmethyl)-carbamic acid 3-cyano-2-[3-(2-ethoxy-phenyl)-propanoylamino]-4,5,6,7-tetrahydro-benzo[b]thiophen-6-yl ester]: the IC50 in test [1] is at most 501 nM; in test [2] it was at least 100000 nM.

These data come from patent publication US20110044938A1 (NYCOMED GMBH, priority 2006, published 2011).
